Results published in patent publication US20040023803A1, “Method for producing a solid herbicide formulation” (priority 2000, published 2004).

Experiment: Storage stability test of solid formulations (14 days at 54° C., CIPAC MT 46; active ingredient and AMTT content by quantitative HPLC)
Type: physicochemical
Conditions: for Preparation Concentration % by weight: zero value before storage; for Storage 14 days, 54° C. active ingredient content (rel.): relative to zero value
Description: The solid formulations prepared by the process according to the invention are storage-stable. In accordance with a storage test laid down by the authorization authorities, they are stored for 14 days at 54° C. […] The active ingredient content and the AMTT content of the formulations were each determined by means of quantitative HPLC. […] The samples were then analyzed and compared with the comparative value at the beginning of the storage (zero value). The active ingredient content is shown in each case as relative quantity based on the zero value (as a percentage). The storage experiments were carried out following the method CIPAC MT 46. The shelf life of a product is estimated by short-term storage at elevated temperature.

[1] = Table 2, Example 1 formulation, pH of the suspension 5.1
[2] = Table 2, Example 1 formulation, pH of the suspension 6
[3] = Table 2, Example 1 formulation, pH of the suspension 7
[4] = Table 2, Example 1 formulation, pH of the suspension 8
[5] = Table 2, Example 1 formulation, pH of the suspension 9
[6] = Table 3 (headed Example 3), tritosulfuron + flucarbazone-sodium formulation, pH of the suspension 6.5
[7] = Table 3 (headed Example 3), tritosulfuron + flucarbazone-sodium formulation, pH of the suspension 7.0
[8] = Table 4 (headed Example 4), tritosulfuron + dicamba formulation, pH of the suspension 6
[9] = Table 4 (headed Example 4), tritosulfuron + dicamba formulation, pH of the suspension 7
[10] = Table 4 (headed Example 4), tritosulfuron + dicamba formulation, pH of the suspension 8
[11] = Table 4 (headed Example 4), tritosulfuron + dicamba formulation, pH of the suspension 9

Preparation Concentration % by weight [8]	Preparation Concentration % by weight [9]	Preparation Concentration % by weight [10]	Preparation Concentration % by weight [11]	SMILES	Preparation Concentration % by weight [1]	Preparation Concentration % by weight [2]	Preparation Concentration % by weight [3]	Preparation Concentration % by weight [4]	Preparation Concentration % by weight [5]	Preparation Concentration % by weight [6]	Preparation Concentration % by weight [7]	Storage 14 days, 54° C. active ingredient content (rel.) [6]	Storage 14 days, 54° C. active ingredient content (rel.) [7]	Storage 14 days, 54° C. active ingredient content (rel.) [8]	Storage 14 days, 54° C. active ingredient content (rel.) [9]	Storage 14 days, 54° C. active ingredient content (rel.) [10]	Storage 14 days, 54° C. active ingredient content (rel.) [11]	other results
0.009 % by weight	0.007 % by weight	0.007 % by weight	0.006 % by weight	COc1nc(N)nc(C(F)(F)F)n1 [AMTT, 2-amino-4-methoxy-6-trifluoromethyltriazine]	0.03 % by weight	0.03 % by weight	0.033 % by weight	0.026 % by weight	0.035 % by weight	0.025 % by weight	0.019 % by weight							Storage 14 days, 54° C. % by weight (AMTT content) [1]: 0.249 % by weight; Storage 14 days, 54° C. % by weight (AMTT content) [2]: 0.250 % by weight; Storage 14 days, 54° C. % by weight (AMTT content) [3]: 0.178 % by weight; Storage 14 days, 54° C. % by weight (AMTT content) [4]: 0.056 % by weight; Storage 14 days, 54° C. % by weight (AMTT content) [5]: 0.234 % by weight; Storage 14 days, 54° C. % by weight (AMTT content) [6]: 0.164 % by weight; Storage 14 days, 54° C. % by weight (AMTT content) [7]: 0.065 % by weight; Storage 14 days, 54° C. % by weight (AMTT content) [8]: 0.470 % by weight; Storage 14 days, 54° C. % by weight (AMTT content) [9]: 0.011 % by weight; Storage 14 days, 54° C. % by weight (AMTT content) [10]: 0.007 % by weight; Storage 14 days, 54° C. % by weight (AMTT content) [11]: 0.007 % by weight
				COc1nn(C(=O)[N-]S(=O)(=O)c2ccccc2OC(F)(F)F)c(=O)n1C.[Na+] [flucarbazone-sodium]						24.1 % by weight	24.3 % by weight	98.8 (rel.) % (rel.)	99.5 (rel.) % (rel.)					
60.4 % by weight	58.7 % by weight	58.5 % by weight	58.0 % by weight	COc1c(Cl)ccc(Cl)c1C(=O)O [dicamba]										100 (rel.) % (rel.)	100 (rel.) % (rel.)	100 (rel.) % (rel.)	101.9 (rel.) % (rel.)	

SMILES	Preparation Concentration % by weight [8]	Preparation Concentration % by weight [9]	Preparation Concentration % by weight [10]	Preparation Concentration % by weight [11]	Preparation Concentration % by weight [1]	Preparation Concentration % by weight [2]	Preparation Concentration % by weight [3]	Preparation Concentration % by weight [4]	Preparation Concentration % by weight [5]	Preparation Concentration % by weight [6]	Preparation Concentration % by weight [7]	Storage 14 days, 54° C. active ingredient content (rel.) [6]	Storage 14 days, 54° C. active ingredient content (rel.) [7]	Storage 14 days, 54° C. active ingredient content (rel.) [8]	Storage 14 days, 54° C. active ingredient content (rel.) [9]	Storage 14 days, 54° C. active ingredient content (rel.) [10]	Storage 14 days, 54° C. active ingredient content (rel.) [11]	other results
COc1nc(NC(=O)NS(=O)(=O)c2ccccc2C(F)(F)F)nc(C(F)(F)F)n1 [tritosulfuron, N[[[4-methoxy-6-(trifluoromethyl)-1,3,5-triazin-2-yl]amino]carbonyl]-2-(trifluoromethyl)benzenesulfonamide]	11.9 % by weight	11.9 % by weight	11.3 % by weight	10.4 % by weight	74.2 % by weight	72.3 % by weight	71.7 % by weight	67.5 % by weight	72.4 % by weight	40.5 % by weight	41.1 % by weight	98.8 (rel.) % (rel.)	100 (rel.) % (rel.)	91.3 (rel.) % (rel.)	99.7 (rel.) % (rel.)	98.8 (rel.) % (rel.)	102.6 (rel.) % (rel.)	Storage 14 days, 54° C. active ingredient content (rel.) [1]: 99.3 (rel.) % (rel.); Storage 14 days, 54° C. active ingredient content (rel.) [2]: 99.9 (rel.) % (rel.); Storage 14 days, 54° C. active ingredient content (rel.) [3]: 100.8 (rel.) % (rel.); Storage 14 days, 54° C. active ingredient content (rel.) [4]: 100.5 (rel.) % (rel.); Storage 14 days, 54° C. active ingredient content (rel.) [5]: 97.7 (rel.) % (rel.)
